Values of other authors in US9400249B2, “Detection of biopolymer interactions, cancer cells, and pathogens using split-supercharged GFP” (Colorado State University Research Foundation, priority 2012, dated 2016).

Assays:
Head and neck cancer = conditions: Targeted cell type: Head and neck cancer; read-out: Approximate affinity (Kd in nM)
[1] = tested on: PC-3 prostate cancer cells; conditions: previously reported
[2] = molecular target: Breast cancer, Neuroblastoma; conditions: Targeted cell type: Breast cancer, read-out: Approximate affinity (Kd in nM)
Cholangiocarcinoma = conditions: Targeted cell type: Cholangiocarcinoma; read-out: Approximate affinity (Kd in nM)
Hepatocellular carcinoma = conditions: Targeted cell type: Hepatocellular carcinoma; read-out: Approximate affinity (Kd in nM)
Osteosarcoma = conditions: Targeted cell type: Osteosarcoma; read-out: Approximate affinity (Kd in nM)

Sequence: TSPLNIHNGQKL [cell targeting peptide, targeted cell type head and neck cancer]
- Kd (Head and neck cancer): ~1000 nM

Sequence: FRPNRAQDYNTN
- binding to PC-3 prostate cancer cells (Prostate cancer; PC-3 prostate cancer cells, previously reported): potently binds
- Kd (Prostate cancer; Targeted cell type: Prostate cancer, read-out: Approximate affinity (Kd in nM)): ~180 nM
- penetration of PC-3 prostate cancer cells [1]: does not appreciably penetrate

Sequence: VPWMEPAYQRFL [cell targeting peptide, targeted cell type breast cancer, neuroblastoma]
- Kd [2]: 50000 to 80000 nM

Sequence: TPVLETPKLLLW [cell targeting peptide, targeted cell type cholangiocarcinoma]
- Kd (Cholangiocarcinoma): ~500 nM

Sequence: AGKGTPSLETTP [cell targeting peptide, targeted cell type hepatocellular carcinoma]
- Kd (Hepatocellular carcinoma): ~50 nM

Sequence: ASGALSPSRLDT [cell targeting peptide, targeted cell type osteosarcoma]
- Kd (Osteosarcoma): ~2000 nM
